Entries after “also recorded” stand apart in the source; their conditions may differ.
Columns and labels:
Format in all cases: cell-based, human
H1944 cells [1] = assay: Quantification of micronucleus formation; conditions: 48-hour pulse treatment schedule, 200 nM CFI-402257, 5 nM docetaxel, 200 nM barasertib
Excerpt: MPS1 is a regulator of the spindle assembly checkpoint (SAC), and MPS1 inhibition in other contexts is known to facilitate massive chromosome missegregation (London and Biggins, 2014). This effect could therefore be related to the formation of micronuclei, known activators of cGAS-STING signaling generated by mitotic slippage and subsequent progression into G1 (Mackenzie et al., 2017). […] Furthermore, induction of CXCL10 mRNA expression in H1944 cells directly correlated with the number of micronuclei induced by these DNA-damaging agents, with CFI-402257 representing the clear outlier (FIG. 5C). Additionally, Lamin B2 over-expression, which is sufficient to inhibit micronuclei disruption (Hatch et al., 2013) and could protect against cGAS recognition, attenuated CXCL10 secretion induced by pulse treatment with MPS1 inhibitor (FIGS. 6A and 6B).
Cells were plated onto chamber slides (CellTreat, Cat #229168), and treated with DNA-damaging agents for 48 hours. […] Z-stack images were subjected to maximum projection followed by quantitative analysis using CellSens. All samples were imaged and analyzed with the same setting throughout the experiments. The number of micronuclei were counted from three different fields for each sample. […] Slides were imaged with Zeiss LSM 880 confocal microscopy, and colocalization was determined using ImageJ.

H1944 cells [2] = assay: Cell viability assay to determine an IC50 (CellTiter-Glo); conditions: Homo sapiens, NCI-H1944, 72 hours with drug
Excerpt: (§1) Due to their particular hypersensitivity, H1944 cells were utilized as a model system in which to conduct an unbiased screen of cytotoxic chemotherapies or targeted DNA-damaging agents for their ability to upregulate endogenous 2′3′-cGAMP production following pulse treatment, including cGAS-deficient H2122 cells as a counter-screen (FIGS. 3A and 3B). […] Additionally, hydroxyurea or nocodazole were included as controls to induce S-phase or M-phase cell cycle arrest. The IC50 was identified for each compound for cell viability in H1944 cells, and this concentration was utilized for the screen (FIG. 4A and Table 1). It was shown that each agent induced cellular cytotoxicity and/or DNA-damage response at this concentration, as measured by the induction of propidium iodide positive cells, cleaved PARP fragments, or histone TH2A.X expression (FIGS. 4B and 4C).
3000 cells were plated onto 96-well plates, and then cultured for 72 hours in the presence of each DNA-damaging agent at the indicated concentration. Values of CellTiter-Glo Luminescent Cell Viability assay (Promega) […] were normalized to vehicle treated cells. Plates were read on a Tecan Infinite M200 Pro plate reader and analysis was performed using Prism7 (GraphPad Software). All conditions were tested in triplicate.

STING pathway = assay: Screening of DNA-damaging agents: CXCL10 / IFN-β ELISA in conditioned medium of H1944 cells after pulse treatment
Excerpt: as §1
(§2) Human IFN-β (Thermo Fisher Scientific, Cat. #414101), human CXCL10 (R&D systems, Cat. #DIP100), mouse CXCL10 (R&D systems, Cat. #DY466), and 2′3′-cGAMP (Cayman Chemical, Cat. #501700) ELISAs were performed according to the manufacturer's instructions. Conditioned media from each cell lines was collected after 24 hour culture. Values represent the average of four replicates from at least two independent experiments (biological replicates).

KL NSCLC cell lines = assay: CXCL10 ELISA after exogenous CDN exposure, KL NSCLC cell lines; conditions: 24 hours
Excerpt: Treatment with 2′3′-cGAMP or ADU-S100 was utilized to examine the sensitivity of KP or KL NSCLC cell lines to exogenous CDN exposure. […] KL cell response to extracellular CDNs was still modest as compared with endothelial cells (HUVEC) or monocytic THP-1 cells, which also have different membrane permeabilities (FIG. 2C) (Cordova et al., 2021; Luteijn et al., 2019; Ritchie et al., 2019).
as §2

THP1 cells = assay: STING pathway activation (CXCL10 ELISA, immunoblot) in PMA-differentiated macrophage-like THP1 cells; conditions: 200 nM CFI-402257 screening schedule or 10 μM ADU-S100 24 hours
Method: Based on these observations, MPS1 inhibition might also induce micronuclei more efficiently in proliferating cancer cells as compared with non-genomically altered, non-proliferative cells in the TME such as immune cells and endothelial cells.
as §2
Cells were lysed in RIPA buffer containing 1× protease inhibitors (Roche, Cat #11-836-145-001) and phosphatase inhibitors (50 mmol/L NaF and 100 mmol/L Na3VO4). […] Imaging of blots and quantitation of bands was performed using the LICOR Odyssey system, or LAS-3000 (Fujifilm).

| Structure (SMILES) | micronuclei formation (H1944 cells [1]) | IC50 (H1944 cells [2]) [nM] | CXCL10 secretion in H1944 cells following 48-hour pulse treatment (STING pathway; H1944 cells, IC50-based screening concentration, ELISA of conditioned medium) | CXCL10 induction at lower concentrations (STING pathway; H1944 cells, concentrations below the IC50, pulse treatment) | CXCL10 secretion, STING^Absent KL cell lines (KL NSCLC cell lines; A549, H23, A427, up to 100 μM) | CXCL10 secretion, STING^Low KL cells (KL NSCLC cell lines; H1944, H2122, H647, H1355, 3.125-100 μM) | STING pathway activation in macrophage-like THP1 cells (THP1 cells) | STING signaling activation in H1944 cells (STING pathway; 200 nM CFI-402257 screening schedule vs 10 μM ADU-S100 24 hours) |
| --- | --- | --- | --- | --- | --- | --- | --- | --- |
| CC(=O)O[C@@]12CO[C@@H]1C[C@H](O)[C@@]1(C)C(=O)[C@H](O)C3=C(C)[C@@H](OC(=O)[C@H](O)[C@@H](NC(=O)OC(C)(C)C)c4ccccc4)C[C@@](O)([C@@H](OC(=O)c4ccccc4)[C@H]21)C3(C)C [docetaxel] | generated micronuclei | 3.97 | induce significant CXCL10 secretion; also recorded: partially activated CXCL10 production | not upregulated |  |  |  |  |
| Nc1ncnc2c1ncn2[C@@H]1O[C@@H]2COP(=O)([S-])O[C@@H]3[C@H](O)[C@@H](COP([O-])(=S)O[C@H]2[C@H]1O)O[C@H]3n1cnc2c(N)ncnc21.[Na+].[Na+] (some centres unmarked) [ADU-S100] |  |  |  |  | failed to respond | dose-dependent manner | high sensitivity | negligible impact |
